{"source": "patent US7060477B2", "about": "“Epoxide hydrolases of aspergillus origin” (Centre National de la Recherche Scientifique, priority 1999, dated 2006)", "molecules": {"B1": {"name": "rat microsomal epoxide hydrolase (mEH): rat microsomal epoxide hydrolase, literature comparison enzyme (protein, UniProt P07687 1-455, looked up)", "Epoxide hydrolase 1": "MWLELVLASLLGFVIYWFVSRDKEETLPLGDGWWGPGSKPSAKEDESIRPFKVETSDEEIKDLHQRIDRFRASPPLEGSRFHYGFNSNYMKKVVSYWRNEFDWRKQVEILNQYPHFKTKIEGLDIHFIHVKPPQLPSGRTPKPLLMVHGWPGSFYEFYKIIPLLTDPKSHGLSDEHVFEVICPSIPGYGYSEASSKKGLNSVATARIFYKLMTRLGFQKFYIQGGDWGSLICTNMAQMVPNHVKGLHLNMAFISRSFYTMTPLLGQRFGRFLGYTEKDIELLYPYKEKVFYSIMRESGYLHIQATKPDTVGCALNDSPVGLAAYILEKFSTWTKSEYRELEDGGLERKFSLDDLLVNIMIYWTTGTIVSSQRYYKENLGQGIMVHKHEGMKVFVPTGFSAFPSELLHAPEKWVKVKYPKLISYSYMERGGHFAAFEEPKLLAQDIRKFVSLAELQ"}, "B2": {"name": "EH from Aspergillus niger: fungal epoxide hydrolase represented by SEQ ID NO: 2, purified from Aspergillus niger LCP521 or recombinant in E. coli (protein)", "chain": "MSAPFAKFPSSASISPNPFTVSIPDEQLDDLKTLVRLSKIAPPTYESLQADGRFGITSEWLTTMREKWLSEFDWRPFEARLNSFPQFTTEIEGLTIHFAALFSEREDAVPIALLHGWPGSFVEFYPILQLFREEYTPETLPFHLVVPSLPGYTFSSGPPLDKDFGLMDNARVVDQLMKDLGFGSGYIIQGGDIGSFVGRLLGVGFDACKAVHLNLCAMRAPPEGPSIESLSAAEKEGIARMEKFMTDGLAYAMEHSTRPSTIGHVLSSSPIALLAWIGEKYLQWVDKPLPSETILEMVSLYWLTESFPRAIHTYRETTPTASAPNGATMLQKELYIHKPFGFSFFPKDLCPVPRSWIATTGNLVFFRDHAEGGHFAALERPRELKTDLTAFVEQVWQK", "modifications": "Aspergillus niger"}}, "key": {"[1]": {"system": "epoxide hydrolase from Aspergillus niger", "assay": "Effect of selective reagents and co-solvents on epoxide hydrolase activity (pNSO as substrate, diol formed by HPLC)", "assay_type": "biochemical", "details": "for effect of co-solvent on the activity of epoxide hydrolase (opening of the epoxide): organic co-solvent for dissolving the substrate", "procedure": "(§1) Add 50 μL of the preparation containing the enzyme to 410 μL of 0.1 M sodium phosphate buffer pH 7.0 (buffer B) and pre-incubate the mixture at 35° C. for 2 min. Then add 40 μL of a 50 mM solution of racemic pNSO in DMF (final pNSO concentration: 4 mM).\n(§2) After 10 min of incubation, stop the reaction by adding 1 mL of dichloromethane. Stir the mixture vigorously so as to extract both the substrate and the diol produced. The quantity of diol formed is determined after separation on a column of silica by HPLC (high-pressure liquid chromatography) (Waters Associates, USA) as described previously (Nellaiah et al. 1996).\nOne unit of epoxide hydrolase represents the quantity of enzyme that catalyses the formation of one μmol of diol per minute in the above conditions. After incubation with raw extracts, the quantity of diol formed increases linearly with time for at least 30 min, and the reaction rate is proportional to the concentration of the enzyme in the range of 0.01 to 1.2 units (Nellaiah et al., 1996)."}, "[2]": {"details": "cited from earlier work"}, "[3]": {"assay": "Enzymatic activity of recombinant epoxide hydrolase and mutants (conversion of R enantiomer of para-nitrostyrene oxide to diol)", "assay_type": "biochemical, Aspergillus niger", "details": "4-nitro-styrene oxide hydrolysed", "procedure": "in the Ncol site that contains the starting codon of the pGEF+ vector in the context adapted to a ribosome binding site, upstream of the promoter of the RNA polymerase T7. The resulting plasmid is called pGEF II hereinafter. The PCR fragment AfIII/Eco RI of the EH of Aspergillus is ligated in the Ncol/Eco RI site of pGEF II to produce the pGEF Asp EH″ expression construction. The E. coli strain BL21 (DE 3) (Novagen) is transformed with pGEF Asp EH and put in the LB medium at 30° C. In late exponential phase, induction of expression of the recombinant protein is effected by adding isopropyl-β-thiogalactoside (100 μM). After two hours, the bacteria are collected by centrifugation, resuspended in 0.02 volumes of culture of the STE buffer (Tris-HCl, 10 mM, sodium chloride 100 mM, ethylenediamine tetraacetic acid 1 mM, pH 7.4) and stored at −70° C. Enzymatic activity is determined by converting the R enantiomer of para-nitrostyrene oxide to the corresponding diol. The reaction is carried out at a substrate concentration of 880 μM in 500 μL STE at 37° C. for 30 min, in the presence of 10 μL of acetonitrile which is used as solvent of para-nitrostyrene oxide. […]\nThe conversion substrate is quantified by adding 400 μL of supernatant to 800 μL of water and reading the optical density at 277 nm, with the molar extinction coefficient of the product being 9.1×10^3 M^−1 cm^−1. […]"}, "[4]": {"assay": "Hydrolysis of pNSO by the purified EH: pH/temperature profile, enantioselectivity, regioselectivity", "assay_type": "biochemical, Aspergillus niger", "parameters": "activation energy: unit not given here", "procedure": "as §1, §2\nThe incubations with H2[^18O] are carried out in 1 mL flasks containing 180 μL of H2[^18O] buffer B, 20 μL of the purified epoxide hydrolase and 20 μL of substrate (50 mM in acetonitrile). After 1.5 h of incubation at 25° C. with magnetic stirring (500 rpm) the substrate that remains and the product formed are extracted with 2 mL of dichloromethane. The diol is purified by analytical chromatography on silica (eluent: diethylether). 2 μL of samples are analysed by gas chromatography/mass spectrometry (GC/MS). The diol that remains is converted to the corresponding acetonide by reaction with […] in the presence of p-toluene sulphonic acid. The acetonide is analysed by GC/MS as already described by Audier et al., 1968.\nReaction in a total volume of 5 mL is carried out at 25° C., with a substrate with a concentration of 4.3 mM with DMSO (20 vol.%) as co-solvent in a 0.1 M sodium phosphate buffer pH 8.0.\nThe reaction is started by adding 13 U/L of the purified enzyme. Samples are taken every 30 minutes for quantification of the concentrations of the substrate and of product by HPLC using a reversed-phase column (Nellaiah et al., 1996) and for quantification of the enantiomeric excess of the epoxide and of the diol by gas-phase chromatography (Nellaiah et al., 1996)."}, "[5]": {"assay": "Isoelectric point by electrofocusing", "assay_type": "physicochemical, Aspergillus niger", "details": "pH gradient 3 to 9, silver nitrate staining", "procedure": "SDS-PAGE electrophoresis is carried out on a plate with thickness of 1 mm containing a resolving gel (10% of acrylamide) and a concentrating gel (4% of acrylamide) at pH 8.8 in the presence of 0.1% of sodium dodecyl sulphate (SDS) (Laemmli, 1970). The samples are dissolved in a Tris-HCl buffer (62.5 mM, […]) containing 1% (w/v) of SDS, 10% (v/v) of glycerol and 2% (v/v) of β-mercaptoethanol, and are heated at 100° C. for 2 minutes. The proteins are stained with 0.1% (w/v) of Coomassie blue. Migrations on non-denaturing PAGE gels were effected in the same way except that no β-mercaptoethanol was added to the resolving buffer, and that the samples were not heated. Electrofocusing was carried out with a pH gradient of 3–9 by means of the Pharmacia LKB “Phastsystem” system and standard Pharmacia procedures. The proteins were stained with silver nitrate."}, "[6]": {"details": "purified EH of Aspergillus niger, pNSO substrate"}}, "note": "Read-outs that look alike come from different tables or passages of the source."}
{"molecule": "O=C([O-])c1cc[c]([Hg][OH])cc1", "note": "[4-hydroxy-mercuribenzoate]", "values": [{"measurement": "effect of selective reagent on the activity of the enzyme", "setting": "[1]; [6]", "value": "strong inactivation"}]}
{"molecule": "CN(C)C=O", "note": "[DMF]", "values": [{"measurement": "effect of co-solvent on the activity of epoxide hydrolase (opening of the epoxide)", "setting": "[1]; pNSO substrate", "value": "strongest activities"}]}
{"molecule": "O=C(O)CN(CCN(CC(=O)O)CC(=O)O)CC(=O)O", "note": "[EDTA]", "values": [{"measurement": "effect of selective reagent on the activity of the enzyme", "setting": "[1]", "value": "no effect"}]}
{"molecule": "[Cl][Hg][Cl]", "note": "[HgCl2]", "values": [{"measurement": "effect of selective reagent on the activity of the enzyme", "setting": "[1]; [6]", "value": "strong inactivation"}]}
{"molecule": "C1CCOC1", "note": "[THF]", "values": [{"measurement": "effect of co-solvent on the activity of epoxide hydrolase (opening of the epoxide)", "setting": "[1]; pNSO substrate", "value": "low activity"}]}
{"molecule": "CC(C)=O", "note": "[acetone]", "values": [{"measurement": "effect of co-solvent on the activity of epoxide hydrolase (opening of the epoxide)", "setting": "[1]; pNSO substrate", "value": "strongest activities"}]}
{"molecule": "N[C@@H](CS)C(=O)O", "note": "[cysteine]", "values": [{"measurement": "effect of selective reagent on the activity of the enzyme", "setting": "[1]; [6]", "value": "positive effect"}]}
{"molecule": "OO", "note": "[hydrogen peroxide]", "values": [{"measurement": "effect of selective reagent on the activity of the enzyme", "setting": "[1]; [6]", "value": "strongly inhibit"}]}
{"molecule": "NC(=O)CI", "note": "[iodoacetamide]", "values": [{"measurement": "effect of selective reagent on the activity of the enzyme", "setting": "[1]; [6]", "value": "strong inactivation"}]}
{"molecule": "O=C(OO)c1cccc(Cl)c1", "note": "[meta-chloroperbenzoic acid]", "values": [{"measurement": "effect of selective reagent on the activity of the enzyme", "setting": "[1]; [6]", "value": "strongly inhibit"}]}
{"molecule": "OCCS", "note": "[β-mercaptoethanol]", "values": [{"measurement": "effect of selective reagent on the activity of the enzyme", "setting": "[1]; [6]", "value": "positive effect"}]}
{"molecule": "phenylmethane sulphonyl chloride [PMSF]", "values": [{"measurement": "effect of selective reagent on the activity of the enzyme", "setting": "[1]; [6]", "value": "no effect"}]}
{"molecule": "B1", "values": [{"measurement": "conversion number increased by a factor", "setting": "[2]; on replacing Glu^404 of the charge relay system with aspartic acid", "value": 30}, {"measurement": "specific activity", "setting": "[2]; styrene oxide and benzo[α]pyrene oxide", "value": "about 500 nmol converted per minute and milligram of pure enzyme"}]}
{"molecule": "B2", "values": [{"measurement": "specific activity", "setting": "[3]", "value": "100 μmol per minute and milligram"}, {"measurement": "pH of maximum activity", "setting": "[4]", "value": 7, "unit": "pH"}, {"measurement": "temperature of maximum activity", "setting": "[4]", "value": 40, "unit": "°C"}, {"measurement": "regioselectivity of the reaction", "setting": "[4]; for the 2 carbon, pNSO", "value": 97, "unit": "%"}, {"measurement": "activation energy", "setting": "[4]; from 2 to 40° C.", "value": 27}, {"measurement": "ratio of the specific constant (kcat/Km): initial rate of hydrolysis of (R) enantiomer versus (S) enantiomer", "setting": "[4]; starting from racemic pNSO", "value": 55, "unit": "times"}, {"measurement": "isoelectric point", "setting": "[5]", "value": 4.5}]}
